Measured values from patent US10206937B2, “Boronic acid derivatives and therapeutic uses thereof” (Qpex Biopharma, Inc., priority 2014, dated 2019).

System: strains of Enterobacteriaceae producing various carbapenemases (class A, D and B; 104 strains)
Experiment: Antibiotics potentiation by Compound 27 (MIC; meropenem, doripenem, ertapenem, cefepime)
Assay type: cell-based
Settings: + 27 = with Compound 27 at fixed 4 μg/ml

Measured: MIC

C[C@@H](O)[C@H]1C(=O)N2C(C(=O)O)=C(S[C@@H]3CN[C@H](CNS(N)(=O)=O)C3)[C@H](C)[C@H]12 [D]
Y (MIC of 1 μg/mL to 10 μg/mL): strain CF1012 Citrobacter freundii (KPC-2) | strain CF1021 Citrobacter freundii (CMY-type; VIM-1) | strain CF1022 Citrobacter freundii (SHV-12(2be), TEM-OSBL(2b); IMP-8) | strain EC1065 Escherichia coli (IMP-1) | strain ECL1004 Enterobacter cloacae (NMC-A) | strain ECL1026 Enterobacter cloacae (KPC-2, TEM-1) | strain ECL1036 Enterobacter cloacae (KPC-3, TEM-1) | strain ECL1045 Enterobacter cloacae (VIM-1) | strain ECL1055 Enterobacter cloacae (KPC-3, TEM) | strain ECL1059 Enterobacter cloacae (KPC-3, SHV-12, TEM-1) | strain ECL1061 Enterobacter cloacae (KPC-3, Hyper AmpC expression) | strain ECL1086 Enterobacter cloacae (VIM-31, OXA-48(c)) | strain ECL1090 Enterobacter cloacae (TEM-1(2b); CTX-M-22; ACT-type; IMP-8) | strain ECL1092 Enterobacter cloacae (TEM-OSBL(2b); ACT-32; VIM-1) | strain ECL1093 Enterobacter cloacae (TEM-OSBL(2b); ACT-32; VIM-1) | strain ECL1096 Enterobacter cloacae (CMY-4, VIM-4, OXA-48(c)) | strain KP1002 Klebsiella pneumoniae (KPC TEM SHV) | strain KP1003 Klebsiella pneumoniae (KPC TEM SHV) | strain KP1004 Klebsiella pneumoniae (KPC-2, TEM-1, SHV-11) | strain KP1065 Klebsiella pneumoniae (VIM-1, SHV-11) | strain KP1070 Klebsiella pneumoniae (KPC-2, SHV-11, TEM-1) | strain KP1082 Klebsiella pneumoniae (KPC-2, SHV-1) | strain KP1083 Klebsiella pneumoniae (KPC-3, SHV-1, TEM-1) | strain KP1088 Klebsiella pneumoniae (KPC-3, SHV-11, TEM-1) | strain KP1089 Klebsiella pneumonias (OXA-181, CTX-M-15, TEM, SHV) | strain KP1095 Klebsiella pneumoniae (KPC-2 TEM-1 SHV-1) | strain KP1096 Klebsiella pneumoniae (KPC-2 TEM-181 SHV-11) | strain KP1105 Klebsiella pneumoniae (KPC TEM SHV) | strain KP1173 Klebsiella pneumoniae (TEM-33(2br); CTX-M-15; IMP-1) | strain KP1180 Klebsiella pneumoniae (SHV-OSBL(2b), TEM-OSBL(2b); CTX-M-15; DHA-1; IMP-26) | strain KP1181 Klebsiella pneumoniae (SHV-OSBL(2b); CTX-M-15; IMP-26) | strain KP1184 Klebsiella pneumoniae (SHV-OSBL(2b); IMP-1) | strain KPM1123 Klebsiella pneumoniae (KPC-2 TEM SHV) | strain KPM1202 Klebsiella pneumoniae (KPC SHV TEM) | strain KPM1203 Klebsiella pneumoniae (KPC SHV TEM) | strain KPM1344 Klebsiella pneumoniae (VIM-1) | strain KX1017 Klebsiella oxytoca (KPC-2, OXA-2, SHV-30) | strain KX1018 Klebsiella oxytoca (KPC-2, SHV-40, OXY-1) | strain KX1019 Klebsiella oxytoca (KPC-2, OXA-2) | strain PM1027 Proteus mirabilis (VIM-5)
Z (MIC of greater than 10 μg/mL): strain CF1023 Citrobacter freundii (SHV-12(2be), TEM-OSBL(2b); CTX-M-3; CMY-34; NDM-1) | strain EA1019 Enterobacter aerogenes (SHV-5, VIM-1) | strain EC1061 Escherichia coli (NDM-1, CMY-6) | strain EC1064 Escherichia coli (NDM-1, CMY-6, CTX-M-15) | strain EC1068 Escherichia coli (VIM-1) | strain EC1069 Escherichia coli (CTX-M-27; NDM-1) | strain EC1070 Escherichia coli (TEM-OSBL(2b); CMY-42; NDM-5) | strain EC1072 Escherichia coli (CTX-M-3; NDM-1) | strain ECL1057 Enterobacter cloacae (NDM-1, TEM-1, CTX-M-15) | strain ECL1058 Enterobacter cloacae (KPC-3, SHV-11, TEM-1) | strain ECL1082 Enterobacter cloacae (VIM-1) | strain ECL1084 Enterobacter cloacae (CTX-M-15; ACT-16; NDM-1) | strain ECL1085 Enterobacter cloacae (SHV-31(2be), TEM-1(2b); CTX-M-15; NDM-1) | strain ECL1087 Enterobacter cloacae (VIM-1) | strain ECL1088 Enterobacter cloacae (TEM-1(2b); CTX-M-14; ACT-type; VIM-1) | strain ECL1089 Enterobacter cloacae (ACT-type; IMP-1) | strain ECL1091 Enterobacter cloacae (VIM-1) | strain ECL1094 Enterobacter cloacae (VIM-1) | strain ECL1097 Enterobacter cloacae (SHV-31(2be), TEM-OSBL(2b); CTX-M-15; ACT-31; NDM-1) | strain ECL1098 Enterobacter cloacae (TEM-OSBL(2b); DHA-1; ACT-16; NDM-1) | strain KP1001 Klebsiella pneumoniae (KPC TEM SHV) | strain KP1014 Klebsiella pneumoniae (VIM-1, TEM, SHV) | strain KP1054 Klebsiella pneumoniae (VIM-1, SHV-11) | strain KP1059 Klebsiella pneumoniae (VIM-1, SHV-11) | strain KP1061 Klebsiella pneumoniae (KPC-3, SHV-11, TEM-1) | strain KP1064 Klebsiella pneumoniae (KPC-2, SHV-11, TEM-1) | strain KP1074 Klebsiella pneumoniae (KPC-3, SHV-11, TEM) | strain KP1081 Klebsiella pneumoniae (NDM-1, TEM-1, SHV-11, CMY-6, CTX-M-15) | strain KP1084 Klebsiella pneumoniae (KPC-3, SHV-11, TEM-1) | strain KP1086 Klebsiella pneumoniae (OXA-48, CTX-M-15, TEM, SHV) | strain KP1087 Klebsiella pneumoniae (KPC-2, CTX-M-15, SHV-11, TEM-1) | strain KP1097 Klebsiella pneumonias (IMP-1) | strain KP1098 Klebsiella pneumoniae (IMP-26) | strain KP1104 Klebsiella pneumoniae (KPC TEM) | strain KP1159 Klebsiella pneumoniae (SHV-1(2b); CTX-M-15; IMP-4) | strain KP1160 Klebsiella pneumoniae (SHV-28(2be); CTX-M-15; IMP-26) | strain KP1161 Klebsiella pneumoniae (NDM-1) | strain KP1164 Klebsiella pneumoniae (SHV-12(2be); VIM-1) | strain KP1165 Klebsiella pneumoniae (SHV-11(2b); CTX-M-15; VIM-27) | strain KP1166 Klebsiella pneumoniae (SHV-5(2be); VIM-26) | strain KP1169 Klebsiella pneumoniae (SHV-11(2b); VIM-1) | strain KP1170 Klebsiella pneumoniae (SHV-11(2b); CTX-M-15; NDM-1) | strain KP1172 Klebsiella pneumoniae (SHV-31(2be); DHA-1; VIM-1) | strain KP1174 Klebsiella pneumoniae (CTX-M-14; IMP-1) | strain KP1175 Klebsiella pneumoniae (SHV-OSBL(2b); VIM-1) | strain KP1177 Klebsiella pneumoniae (SHV-OSBL(2b), TEM-OSBL(2b); CTX-M-15; NDM-1) | strain KP1178 Klebsiella pneumoniae (SHV-OSBL(2b;) TEM-OSBL(2b); CTX-M-15; NDM-1) | strain KP1179 Klebsiella pneumoniae (SHV-12(2be), TEM-OSBL(2b); CTX-M-15; NDM-7) | strain KP1183 Klebsiella pneumoniae (SHV-OSBL(2b), TEM-OSBL(2b); CTX-M-15; NDM-1) | strain KP1185 Klebsiella pneumoniae (SHV-OSBL(2b), TEM-OSBL(2b); IMP-4) | strain KP1186 Klebsiella pneumoniae (CTX-M-15; NDM-1) | strain KP1187 Klebsiella pneumoniae (SHV-55(2be), TEM-OSBL(2b); CTX-M-15; NDM-1) | strain KP1188 Klebsiella pneumoniae (SHV-OSBL(2b); CTX-M-15; NDM-1) | strain KP1189 Klebsiella pneumoniae (TEM-OSBL(2b); CTX-M-15; CTX-M-27; NDM-1) | strain KPM1345 Klebsiella pneumoniae (VIM-1 SHV) | strain KPM1347 Klebsiella pneumoniae (NDM-1 SHV CTX-M-15) | strain PM1024 Proteus mirabilis (TEM-1(2b); CMY-16; VIM-1) | strain PM1026 Proteus mirabilis (DHA-1; IMP-26) | strain SM1023 Serratia marcescens (VIM-4)
X (MIC of less than 1 μg/mL): strain CL1080 Enterobacter cloacae (IMP-1) | strain EC1007 Escherichia coli (KPC-3) | strain EC1062 Escherichia coli (OXA-48, CTX-M-15) | strain KP1008 Klebsiella pneumoniae (KPC-2) | strain KP1167 Klebsiella pneumoniae (SHV-12(2be); VIM-1)
